# Reference: ChEMBL document CHEMBL3769371, “1-[(2E)-3-Phenylprop-2-enoyl]-1H-benzimidazoles as anticancer agents: synthesis, crystal structure analysis and binding studies of the most potent anticancer molecule with serum albumin” (Medchemcomm, 2015)
# Experiments:
# [1] = Cytotoxicity against human HCT15 cells assessed as cell growth at 10^-5 M after 48 hrs by SRB assay; format: functional; settings: HCT-15, 48 h, read-out: Activity
# [2] = Antiproliferative activity against human TK10 cells at 10'5 M; format: functional, TK-10
# [3] = Cytotoxicity against human UO31 cells after 48 hrs by SRB assay; format: functional; settings: UO-31, 48 h
# K562 = assay: Cytotoxicity against human K562 cells after 48 hrs by SRB assay; format: functional; settings: K562, 48 h
# [4] = Cytotoxicity against human COLO205 cells assessed as cell growth at 10^-5 M after 48 hrs by SRB assay; format: functional; settings: COLO 205, 48 h, read-out: Activity
# NCI-H522 [5] = assay: Cytotoxicity against human NCI-H522 cells assessed as cell growth at 10^-5 M after 48 hrs by SRB assay; format: functional; settings: NCI-H522, 48 h, read-out: Activity
# NCI-H23 = assay: Cytotoxicity against human NCI-H23 cells after 48 hrs by SRB assay; format: functional; settings: NCI-H23, 48 h
# KM12 = assay: Cytotoxicity against human KM12 cells after 48 hrs by SRB assay; format: functional; settings: KM12, 48 h
# [6] = Antiproliferative activity against human Hs 578T cells at 10'5 M; format: functional
# [7] = Cytotoxicity against human DU145 cells after 48 hrs by SRB assay; format: functional; settings: DU-145, 48 h
# [8] = Cytotoxicity against human UACC257 cells after 48 hrs by SRB assay; format: functional; settings: UACC-257, 48 h
# Malme-3M = assay: Antiproliferative activity against human MALME-3M cells at 10'5 M; format: functional
# [9] = Antiproliferative activity against human SKOV3 cells at 10'5 M; format: functional, SK-OV-3
# [10] = Cytotoxicity against human UACC257 cells assessed as cell growth at 10^-5 M after 48 hrs by SRB assay; format: functional; settings: UACC-257, 48 h, read-out: Activity
# Albumin [11] = molecular target: T1, Albumin (Homo sapiens, UniProt P02768); assay: Binding affinity to human serum albumin assessed Stern-Volmer quenching constant at 0.25 to 2 uM at 288 K by fluorescence microscopic analysis; format: ADME; settings: isolated protein
# T1 sequence (P02768 whole entry): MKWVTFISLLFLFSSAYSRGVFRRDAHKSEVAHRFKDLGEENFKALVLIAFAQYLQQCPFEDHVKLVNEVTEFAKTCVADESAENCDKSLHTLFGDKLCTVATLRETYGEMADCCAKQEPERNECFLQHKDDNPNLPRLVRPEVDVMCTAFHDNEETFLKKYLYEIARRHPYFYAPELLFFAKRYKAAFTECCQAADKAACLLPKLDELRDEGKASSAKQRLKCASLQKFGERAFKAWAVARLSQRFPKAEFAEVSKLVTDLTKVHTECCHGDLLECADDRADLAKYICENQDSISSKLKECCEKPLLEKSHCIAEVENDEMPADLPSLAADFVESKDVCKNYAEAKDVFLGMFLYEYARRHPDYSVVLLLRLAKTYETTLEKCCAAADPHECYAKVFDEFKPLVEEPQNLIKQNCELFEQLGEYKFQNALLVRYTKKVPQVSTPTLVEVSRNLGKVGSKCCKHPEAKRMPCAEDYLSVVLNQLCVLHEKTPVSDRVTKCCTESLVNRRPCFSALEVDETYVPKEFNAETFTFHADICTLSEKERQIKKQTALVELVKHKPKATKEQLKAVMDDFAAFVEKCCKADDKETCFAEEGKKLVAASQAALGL
# [12] = Cytotoxicity against human HOP92 cells assessed as cell growth at 10^-5 M after 48 hrs by SRB assay; format: functional; settings: HOP-92, 48 h, read-out: Activity
# [13] = Antiproliferative activity against human DU145 cells at 10'5 M; format: functional, DU-145
# NCI-H522 [14] = assay: Cytotoxicity against human NCI-H522 cells after 48 hrs by SRB assay; format: functional; settings: NCI-H522, 48 h
# [15] = Antiproliferative activity against human PC3 cells at 10'5 M; format: functional, PC-3
# [16] = Cytotoxicity against human HOP62 cells after 48 hrs by SRB assay; format: functional; settings: HOP-62, 48 h
# NCI-H322M = assay: Cytotoxicity against human NCI-H322M cells assessed as cell growth at 10^-5 M after 48 hrs by SRB assay; format: functional; settings: read-out: Activity
# [17] = Cytotoxicity against human HCC2998 cells after 48 hrs by SRB assay; format: functional; settings: HCC 2998, 48 h
# [18] = Cytotoxicity against human OVCAR3 cells assessed as cell growth at 10^-5 M after 48 hrs by SRB assay; format: functional; settings: OVCAR-3, 48 h, read-out: Activity
# [19] = Cytotoxicity against human OVCAR4 cells after 48 hrs by SRB assay; format: functional; settings: OVCAR-4, 48 h
# Albumin [20] = molecular target: T1, Albumin; assay: Binding affinity to human serum albumin assessed as fluorescence quenching in steady state at 0.25 uM at 303 K by fluorescence microscopic analysis; format: ADME; settings: isolated protein
# Albumin [21] = molecular target: T1, Albumin; assay: Binding affinity to human serum albumin at 0.25 to 2 uM at 308 K by fluorescence microscopic analysis; format: ADME; settings: isolated protein
# MDA-MB-468 = assay: Cytotoxicity against human MDA-MB-468 cells after 48 hrs by SRB assay; format: functional; settings: MDA-MB-468, 48 h
# [22] = Cytotoxicity against human SW620 cells assessed as cell growth at 10^-5 M after 48 hrs by SRB assay; format: functional; settings: SW-620, 48 h, read-out: Activity
# [23] = Cytotoxicity against human TK10 cells after 48 hrs by SRB assay; format: functional; settings: TK-10, 48 h
# HT-29 = assay: Cytotoxicity against human HT-29 cells after 48 hrs by SRB assay; format: functional; settings: HT-29, 48 h
# Albumin [24] = molecular target: T1, Albumin; assay: Binding affinity to human serum albumin at 0.25 to 2 uM at 303 K by fluorescence microscopic analysis in the absence of site probes; format: ADME; settings: isolated protein
# MDA-MB-435 = assay: Cytotoxicity against human MDA-MB-435 cells assessed as cell growth at 10^-5 M after 48 hrs by SRB assay; format: functional; settings: MDA-MB-435, 48 h, read-out: Activity
# MDA-MB-231 = assay: Cytotoxicity against human MDA-MB-231 cells after 48 hrs by SRB assay; format: functional; settings: MDA-MB-231, 48 h
# [25] = Cytotoxicity against human OVCAR5 cells assessed as cell growth at 10^-5 M after 48 hrs by SRB assay; format: functional; settings: OVCAR-5, 48 h, read-out: Activity
# [26] = Cytotoxicity against human OVCAR3 cells after 48 hrs by SRB assay; format: functional; settings: OVCAR-3, 48 h
# T47D = assay: Cytotoxicity against human T47D cells assessed as cell growth at 10^-5 M after 48 hrs by SRB assay; format: functional; settings: read-out: Activity
# NCI-H226 = assay: Cytotoxicity against human NCI-H226 cells assessed as cell growth at 10^-5 M after 48 hrs by SRB assay; format: functional; settings: NCI-H226, 48 h, read-out: Activity
# SK-MEL-5 = assay: Cytotoxicity against human SK-MEL-5 cells after 48 hrs by SRB assay; format: functional; settings: SK-MEL-5, 48 h
# [27] = Cytotoxicity against human MOLT4 cells after 48 hrs by SRB assay; format: functional; settings: MOLT-4, 48 h
# [28] = read-out: LC50 (the source's name)
smiles,measurement,setting,value
O=C(/C=C/c1ccccc1)n1c(-c2ccc(Cl)cc2)nc2ccccc21,growth at 10 µM,[1],-24.8%
same,growth inhibition (GI),[2],81.42%
same,GI50,[3],1.1 µM
same,TGI,[3],3.55 µM
same,CC50,[3]; [28],12.9 µM
same,GI50,K562,2.09 µM
same,TGI,K562,11.8 µM
same,CC50,K562; [28],> 100 µM
same,growth at 10 µM,[4],-60.8%
same,growth at 10 µM,NCI-H522 [5],-72.4%
same,GI50,NCI-H23,2.17 µM
same,TGI,NCI-H23,6 µM
same,CC50,NCI-H23; [28],> 100 µM
same,GI50,KM12,1.51 µM
same,TGI,KM12,3.71 µM
same,CC50,KM12; [28],9.16 µM
same,growth inhibition (GI),[6],80.03%
same,GI50,[7],1.8 µM
same,TGI,[7],4.93 µM
same,CC50,[7]; [28],17 µM
same,GI50,[8],1.64 µM
same,TGI,[8],3.12 µM
same,CC50,[8]; [28],5.93 µM
same,growth inhibition (GI),Malme-3M,84.12%
same,growth inhibition (GI),[9],76.05%
same,growth at 10 µM,[10],-64.4%
same,KSV,Albumin [11],2.03 ×10⁵ L/mol
same,growth at 10 µM,[12],-39.4%
same,growth inhibition (GI),[13],88.87%
same,GI50,NCI-H522 [14],1.53 µM
same,TGI,NCI-H522 [14],3.5 µM
same,CC50,NCI-H522 [14]; [28],8.04 µM
same,growth inhibition (GI),[15],93.91%
same,GI50,[16],1.89 µM
same,TGI,[16],7.3 µM
same,CC50,[16]; [28],35.1 µM
same,growth at 10 µM,NCI-H322M,45%
same,GI50,[17],1.41 µM
same,TGI,[17],2.78 µM
same,CC50,[17]; [28],5.49 µM
same,growth at 10 µM,[18],-57.2%
same,GI50,[19],1.11 µM
same,TGI,[19],2.64 µM
same,CC50,[19]; [28],6.29 µM
same,K,Albumin [20],5.68 ×10³ /mol
same,K,Albumin [21],6.27 ×10³ /mol
same,GI50,MDA-MB-468,1.52 µM
same,TGI,MDA-MB-468,4.32 µM
same,CC50,MDA-MB-468; [28],23.7 µM
same,growth at 10 µM,[22],-55.1%
same,GI50,[23],2.35 µM
same,TGI,[23],7.93 µM
same,CC50,[23]; [28],28 µM
same,GI50,HT-29,1.34 µM
same,TGI,HT-29,7.05 µM
same,CC50,HT-29; [28],29.8 µM
same,K,Albumin [24],5.68 ×10³ /mol
same,growth at 10 µM,MDA-MB-435,-44.3%
same,GI50,MDA-MB-231,1.88 µM
same,TGI,MDA-MB-231,5.18 µM
same,CC50,MDA-MB-231; [28],25.4 µM
same,growth at 10 µM,[25],-48.1%
same,GI50,[26],1.95 µM
same,TGI,[26],4.63 µM
same,CC50,[26]; [28],13.4 µM
same,growth at 10 µM,T47D,-4.25%
same,growth at 10 µM,NCI-H226,-55.3%
same,GI50,SK-MEL-5,1.49 µM
same,TGI,SK-MEL-5,3.22 µM
same,CC50,SK-MEL-5; [28],6.92 µM
same,GI50,[27],1.13 µM
same,TGI,[27],6.73 µM
same,CC50,[27]; [28],> 100 µM
